{"source": "paper PMC8349443", "about": "(Journal of the Indian Chemical Society, 2021)", "key": {"[1]": {"system": "SARS-CoV-2 virus", "test": "Antiviral potentiality against SARS-CoV-2", "assay_type": "cell-based", "conditions": "isolate of SARS-CoV-2"}, "[2]": {"system": "plasma C-Reactive Protein (CRP) and procalcitonin", "conditions": "ref [7], [8], [9]; cited from earlier work"}}, "data": [{"smiles": "N[C@@H](CC(=O)N1CCn2c(nnc2C(F)(F)F)C1)Cc1cc(F)c(F)cc1F", "note": "[SIT, Sitagliptin]", "values": [{"measurement": "antiviral activity against SARS-CoV-2 in words", "setting": "[1]", "result": "have antiviral activity against an isolate of SARS-CoV-2"}, {"measurement": "possible immuno-modulatory effect: plasma CRP and procalcitonin", "setting": "[2]", "result": "plasma C-Reactive Protein (CRP) and procalcitonin reduction"}]}]}
